Structures can show the parent of a compound that is named as a salt. Where two headings read alike, the source gives them in different places.

For one series, the target named is T1, IRAK4 (Homo sapiens, UniProt Q9NWZ3).
T1 construct: purchased Signalchem I12-10G-20
T1 sequence (Q9NWZ3 1-460): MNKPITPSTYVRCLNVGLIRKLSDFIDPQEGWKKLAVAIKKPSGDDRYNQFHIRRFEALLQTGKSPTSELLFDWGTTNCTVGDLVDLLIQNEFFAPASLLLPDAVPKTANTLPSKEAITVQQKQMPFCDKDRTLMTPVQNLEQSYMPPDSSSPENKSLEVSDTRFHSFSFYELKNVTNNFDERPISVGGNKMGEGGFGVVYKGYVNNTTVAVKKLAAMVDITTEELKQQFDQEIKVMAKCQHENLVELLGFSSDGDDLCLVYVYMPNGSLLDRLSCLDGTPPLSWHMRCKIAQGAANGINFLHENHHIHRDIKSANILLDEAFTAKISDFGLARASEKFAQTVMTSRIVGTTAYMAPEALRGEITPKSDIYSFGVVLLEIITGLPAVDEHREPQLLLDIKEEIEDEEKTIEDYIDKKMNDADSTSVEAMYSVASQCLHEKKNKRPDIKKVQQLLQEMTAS
Nature of the series: IRAK4 ADP-Glo kinase assay. It is filed as biochemical. The following applies: read-out: IRAK4 ADP-Glo Kinase, 8 pt EC50. On the procedure: The ADP-Glo™ reagents were thawed at ambient temperature. The Kinase Detection Reagent was prepared by mixing kinase detection buffer with the lyophilized kinase detection substrate, and set aside.
A stock volume of 5× Reaction Kinase Buffer was made with a final concentration of 100 mM MgCl2, 200 mM Tris-HCl, and 0.5 mg/ml of BSA, in distilled H2O with a final pH7.4. A 2× working stock volume of Reaction Kinase Buffer was made containing a final concentration of 100 μM DTT.
The components of IRAK4 Enzyme were thawed on ice. Diluted IRAK4 in 1× Kinase Reaction Buffer (diluted from 2× buffer) was prepared at […]. A 250 μM working stock ATP Assay Solution was prepared in 1× Kinase Reaction Buffer (diluted from 2× buffer).
The compound was diluted in DMSO from 250 µM in 4-fold series dilutions for 8 points. Then diluted 1:5 in 2× Reaction Buffer in a 96 well plate. 1.0 μl was transferred to a 384 well plate in duplicate. […] 1 μl of 1 mg/ml stock solution of MBP substrate was added NOTE: MBP can be combined with ATP mix with equal volume and then added at 2 μl/well. Final reaction volume was 5 μl. The plate was centrifuged and the reaction mixture was incubated at room temperature for 60 minutes or at 30° C. for 30 minutes.
The reaction was terminated and the remaining ATP was depleted by adding 5 μl of ADP-Glo™ Reagent. The 384-well plate was centrifuged and then the reaction mixture was incubated for another 40 minutes at ambient temperature.
10 μl of the Kinase Detection Reagent was added. The plate was centrifuged and then the reaction mixture was incubated for another 30 minutes at ambient temperature.
The 384-well reaction plate was read using the WALLAC plate reader (Luminescence 0.1s).
For orientation: ADP-Glo first removes unused ATP, then detects ADP through luciferase.

The next series deals with IRAK1 (Homo sapiens, UniProt P51617). Nature of the series: IRAK1 ADP-Glo kinase assay. It is filed as biochemical. The following applies: read-out: IRAK1 ADP-Glo Kinase, 8 pt EC50.
Chain of IRAK1 (P51617 whole entry): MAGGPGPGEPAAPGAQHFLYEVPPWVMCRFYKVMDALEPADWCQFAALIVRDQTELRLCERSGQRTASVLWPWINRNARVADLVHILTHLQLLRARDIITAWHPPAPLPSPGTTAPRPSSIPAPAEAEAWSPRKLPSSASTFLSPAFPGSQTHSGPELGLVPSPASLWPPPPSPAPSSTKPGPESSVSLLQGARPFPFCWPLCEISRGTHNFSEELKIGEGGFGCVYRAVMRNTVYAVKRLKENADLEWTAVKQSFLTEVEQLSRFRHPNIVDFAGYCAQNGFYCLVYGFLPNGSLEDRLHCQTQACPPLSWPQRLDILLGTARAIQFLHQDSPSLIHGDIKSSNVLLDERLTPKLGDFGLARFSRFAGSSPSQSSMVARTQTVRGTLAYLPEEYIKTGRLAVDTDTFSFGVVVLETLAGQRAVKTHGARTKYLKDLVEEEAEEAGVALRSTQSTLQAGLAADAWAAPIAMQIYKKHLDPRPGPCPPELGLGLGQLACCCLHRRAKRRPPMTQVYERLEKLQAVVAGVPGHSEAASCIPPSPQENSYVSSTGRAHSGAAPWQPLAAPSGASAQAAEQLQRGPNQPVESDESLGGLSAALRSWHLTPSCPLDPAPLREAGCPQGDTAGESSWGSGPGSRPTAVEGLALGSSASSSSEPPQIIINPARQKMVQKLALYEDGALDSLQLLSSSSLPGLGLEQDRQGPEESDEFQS
The test system of another series is IL23p19 in THP-1 Cells. Nature of the series: LPS induced IL23p19 in THP-1 cells (IFNγ primed), ELISA. The following applies: Homo sapiens, THP-1 cells IFNγ primed, LPS 1 μg/mL, 18 h, read-out: IL23-p19 ELISA, THP1-IFNy, LPS, 10 pt EC50. The format is cell-based. On the procedure:
On day 1, 50K/well THP-1 cells were seeded and primed with IFNγ (50 ng/mL) in 384-well plates for about 18 hours in RPMI media with 10% FBS. On day 2, the compound was serially diluted in DMSO from 5 mM in 3-fold dilutions, and then diluted 1:125 in RPMI media with 10% FBS. 50 μL/well 2× compound was added to 50 μL/well THP-1 cells (with IFNγ primed) in duplicate in 384 well tissue culture plates. The cells were pre-incubated with compound for 1 hour at 37° C., 5% CO2 before addition of 10 μL/well 11×LPS to give a final concentration of 1 μg/mL LPS. Day 3, after stimulation for 18 hours at 37° C., 5% CO2, the assay plate was centrifuged and 70 μL/well supernatant was harvested. IL-23p19 protein in 70 μL/well of supernatant was measured by sandwich ELISA, and 25 μl/well Cell Titer Glo reagent was added to the remaining cells to measure compound toxicity.
Maxisorp immuno ELISA plates were pre-coated with 25 μL/well of anti-IL-23p19 capture antibody (2.5 ug/mL) in PBS overnight at room temperature. After washing with 1×PBST, the plates were blocked using 100 μL/well of 1% BSA in PBS for 2 hours at room temperature. The plates were washed three times with 1×PBST and 70 μL/well supernatant were added. The plates were incubated at room temperature for 2 hours with shaking and washed three times with 1×PBST. 25 μL/well of biotin labeled anti-IL-12 (p40/p70) detection antibody (100 ng/mL) in PBS with 1% BSA was added and the plates were incubated at room temperature for 2 hours with shaking. After washing three times with 1× PBST, 25 μL/well of streptavidin-HRP (1:200) in PBS with 1% BSA was added and the plates were incubated at room temperature for 20 minutes with shaking. The plates were washed three times with 1× PBST and 25 μL/well of Super Signal ELISA Pico Chemiluminescent Substrate were added. The plates were read with a luminometer, and the chemiluminescence values were entered into Athena (Rigel) for curve fitting, EC50 calculation, and database storage.
THP-1 cells (100K in 100 μL/well) were primed with 25 ng/mL IFN-γ for 18 hours at 37° C., 5% CO2. Compound was serially diluted in DMSO from 2.5 mM in 4-fold dilutions, and then diluted 1:125 in RPMI 1640 complete media with 10% FBS. 100 μL/well 2× compound was mixed with the 100 μL/well IFN-7 primed THP-1 in 96 well flat-bottom white tissue culture plates. The cells were pre-incubated with compound for 1 hour at 37° C., 5% CO2 and before addition of 10 μL/well 21×LPS to give a final concentration of […] for LPS. The cells were stimulated with LPS for 18 hours at 37° C., 5% CO2. After centrifugation, 100 μL/well supernatant was extracted by using a multichannel pipette. IL-23p19 or TNF-α protein in the supernatant were measured by sandwich ELISA. The remaining IFN-7 primed THP-1 cell pellets were used to perform cell viability assays to determine compound cell toxicity. The plates were read with a luminometer, and the chemiluminescence values were entered into Athena (Rigel) for curve fitting, EC50 calculation, and database storage.
Maxisorp immuno ELISA plates were pre-coated with 100 μL/well of anti-IL-23p19 capture antibody (2.4 μg/mL) in PBS overnight at room temperature. After washing with 1×PBST, the plates were blocked using 300 μL/well of 1% BSA in PBS for 2 hours at room temperature. The plates were washed three times with 1×PBST and 100 μL/well supernatant was added. The plates were incubated at room temperature for 2 hours with shaking. The plates were washed three times with 1×PBST and 100 μL/well of biotin anti-human IL-12 (p40/70) detection antibody (10 ng/mL) in PBS with 0.1% BSA were added. The plates were incubated at room temperature for 2 hours with shaking. The plates were washed three times with 1×PBST and 100 μL/well streptavidin-HRP (1:200) in PBS with 0.1% BSA was added. The plates were incubated at room temperature for 20 minutes with shaking. […]
For orientation: ELISA stands for enzyme-linked immunosorbent assay.

Series [1] can be described thus: Bioavailability of prodrug I-3, rat. The format is in vivo. The following applies: measured as amount of parent compound I-1 detected.
Series [2] can be described thus: Bioavailability of prodrug I-3, monkey. The format is in vivo. The following applies: measured as amount of parent compound I-1 detected.
Series [3] is described as follows: Bioavailability of prodrug I-3, mouse. It is filed as in vivo. The following applies: measured as amount of parent compound I-1 detected.
A short description of series [4]: Bioavailability of prodrug I-3, dog. The format is in vivo. The following applies: measured as amount of parent compound I-1 detected.

As for `CCO[C@H]1CC[C@H](n2cc(NC(=O)c3csc(-c4cnn(COP(=O)(O)O)c4)n3)c(-c3ncccn3)n2)CC1` [Compound I-2, (4-(4-((1-((1r,4r)-4-ethoxycyclohexyl)-3-(pyrimidin-2-yl)-1H-pyrazol-4-yl)carbamoyl)thiazol-2-yl)-1H-pyrazol-1-yl)methyl dihydrogen phosphate], the 50% effective concentration (EC50) (as a rule, the concentration at which the effect is half-maximal) on IRAK4 came to 46.4 nM; at IRAK1, 3910 nM; in the series on IL23p19 in THP-1 Cells, 11 nM.
In the case of `CCO[C@H]1CC[C@H](n2cc(NC(=O)c3csc(-c4cnn(COP(=O)(O)O)c4)n3)c(-c3ncccn3)n2)CC1` [Compound I-3, sodium (4-(4-((1-((1r,4r)-4-ethoxycyclohexyl)-3-(pyrimidin-2-yl)-1H-pyrazol-4-yl)carbamoyl)thiazol-2-yl)-1H-pyrazol-1-yl)methyl phosphate], the concentration for a half-maximal effect (EC50) was determined as 128 nM at IRAK4; 61.8 nM on IRAK1; 54.4 nM with IL23p19 in THP-1 Cells (THP-1, 18 h). Moreover, the “Bioavailability (% F) of Compound I-3” value in series [1] was determined as 12 % F; in series [2] it was 71 % F; in series [3], 34 % F; in series [4] it was 53 % F.
Turning to `CCO[C@H]1CC[C@H](n2cc(NC(=O)c3csc(-c4cn[nH]c4)n3)c(-c3ncccn3)n2)CC1` [Compound I-4, N-(1-((1r,4r)-4-ethoxycyclohexyl)-3-(pyrimidin-2-yl)-1H-pyrazol-4-yl)-2-(1H-pyrazol-4-yl)thiazole-4-carboxamide tartaric acid salt], the EC50 at IRAK4 stood at 18.8 nM; on IRAK1 it was 28.1 nM; in the series on IL23p19 in THP-1 Cells (THP-1, 18 h), 2.5 nM.
